Experimental data published in US9187460B2, “Estrogen receptor modulators and uses thereof” (SERAGON PHARMACEUTICALS, INC., priority 2011, dated 2015).

Key:
ER-α = target: T1, ER-α (Homo sapiens, UniProt P03372); test: Breast Cancer Cell ER-α in Cell Western Assay (SP1); format: cell-based; settings: MCF7, read-out: ER In-Cell Western Assay (SP1); Max Response
T1 construct: endogenous in cells; host or cells: MCF-7
Procedure: Breast Cancer Cell ER-α in Cell Western Assay (SP1)
MCF-7 cells were adjusted to a concentration of 200,000 cells per mL in RPMI containing 10% charcoal-stripped FBS and 20 mM HEPES. 16 microliters of the cell suspension (3200 cells) was added to each well of a poly-D-lysine 384 well plate, and the cells were incubated overnight to allow the cells to adhere. The following day an eleven point, serial semilog dilution of each compound was added to the cells in 16 μL at a final concentration ranging from 0.3-0.000003 μM. At 4 or 24 hr post compound addition, the cells were fixed (10% formalin in PBS) for 20 minutes. Cells were permeablized in PBS 0.1% Triton and blocked with LICOR blocking buffer (50 μl/well, 90′). The wells were then incubated overnight at 4° C. with SP1 rabbit monoclonal Ab (Thermo Scientific) diluted 1:1000 in LICOR blocking buffer/0.1% Tween-20. Wells which were treated with blocking buffer with Tween but no antibody were used as a background control. Wells were washed with 0.1% Tween-20/PBS and then incubated in goat anti-rabbit IRDye™ 800CW (LICOR Inc.; 1:1000) and DRAQ5 DNA dye (1:2000 for 2 mM stock) diluted in LICOR blocking buffer containing 0.1% Tween-20 and 0.01% SDS for 60 minutes. Cells were washed (50 μl/well, 5′ each) in 0.1% Tween-20/PBS. Plates were scanned on a LICOR Odyssey infrared imaging system. Integrated intensities in the 800 nm channel and 700 nm channel were measured to determine levels of ER and DNA respectively. Percent ER levels were determined as follows: (Integrated intensity 800 nm sample/integrated intensity 700 nm sample)/(Integrated intensity 800 nm untreated cells/integrated intensity 700 nm untreated cells)×100=% ER levels.

MCF-7 cells = test: Breast Cancer Cell Viability Assay (MCF7 Viability Assay); format: cell-based; settings: for IC50: Homo sapiens, MCF7, 120 h, read-out: MCF7 Viability Assay IC50; for MCF7 Viability Assay Max Response: MCF-7 cells, 5 days' compound exposure, CellTiter-Glo

T1 sequence (P03372 whole entry): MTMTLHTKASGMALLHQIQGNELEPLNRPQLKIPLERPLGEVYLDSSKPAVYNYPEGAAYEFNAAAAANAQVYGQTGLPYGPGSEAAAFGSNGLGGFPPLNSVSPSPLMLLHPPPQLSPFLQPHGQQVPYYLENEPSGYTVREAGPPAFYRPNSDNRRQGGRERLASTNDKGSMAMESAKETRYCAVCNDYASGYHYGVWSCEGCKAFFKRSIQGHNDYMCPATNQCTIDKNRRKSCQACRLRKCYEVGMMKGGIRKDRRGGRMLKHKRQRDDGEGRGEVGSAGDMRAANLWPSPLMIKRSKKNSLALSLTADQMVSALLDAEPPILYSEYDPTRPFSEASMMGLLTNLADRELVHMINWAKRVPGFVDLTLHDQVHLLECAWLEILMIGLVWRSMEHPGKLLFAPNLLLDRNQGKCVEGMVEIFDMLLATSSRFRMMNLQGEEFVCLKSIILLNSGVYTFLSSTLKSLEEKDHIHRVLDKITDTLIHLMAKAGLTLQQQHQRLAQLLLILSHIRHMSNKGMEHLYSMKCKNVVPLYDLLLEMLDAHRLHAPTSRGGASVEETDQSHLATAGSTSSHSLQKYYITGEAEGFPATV

Row | Structure (SMILES) | Emax (ER-α) [%] | IC50 (MCF-7 cells) [nM] | MCF7 Viability Assay Max Response (MCF-7 cells)
1 | CC1=C(c2cccc(O)c2)C(c2ccc(OCCN3CCOCC3)cc2)Oc2ccc(O)cc21 (stereo not drawn) [Example 21, 3-(3-Hydroxyphenyl)-4-methyl-2-(4-(2-morpholinoethoxy)phenyl)-2H-chromen-6-ol] | 60 to 85 | < 1 | + (+ = a single % value <50%)
2 | CC1=C(c2cc(O)cc(Br)c2)C(c2ccc(OC[C@H](C)N3CC[C@@H](C)C3)cc2)Oc2ccc(O)cc21 (stereo partly drawn) [Example 1, 3-(3-Bromo-5-hydroxyphenyl)-4-methyl-2-(4-((S)-2-((R)-3-methylpyrrolidin-1-yl)propoxy)phenyl)-2H-chromen-6-ol] | > 85 | < 1 | ++ (++ = a single % value ≧50%)
3 | CC1=C(c2cccc(C#N)c2)C(c2ccc(OC[C@H](C)N3CC[C@@H](C)C3)cc2)Oc2ccc(O)cc21 (stereo partly drawn) [Example 6, 3-(6-Hydroxy-4-methyl-2-(4-((S)-2-((R)-3-methylpyrrolidin-1-yl)propoxy)phenyl)-2H-chromen-3-yl)benzonitrile] | 60 to 85 | > 1 | ++ (++ = a single % value ≧50%)
4 | CC1=C(c2cc(O)cc(S(C)(=O)=O)c2)C(c2ccc(OC[C@H](C)N3CC[C@@H](C)C3)cc2)Oc2ccc(O)cc21 (stereo partly drawn) [Example 16, 3-(3-Hydroxy-5-(methylsulfonyl)phenyl)-4-methyl-2-(4-((S)-2-((R)-3-methylpyrrolidin-1-yl)propoxy)phenyl)-2H-chromen-6-ol] | 60 to 85 | > 1 | ++ (++ = a single % value ≧50%)
5 | CC1=C(c2ccc(S(C)(=O)=O)cc2C)C(c2ccc(OC[C@H](C)N3CC[C@@H](C)C3)cc2)Oc2ccc(O)cc21 (stereo partly drawn) [Example 18, 4-Methyl-3-(2-methyl-4-(methylsulfonyl)phenyl)-2-(4-((S)-2-((R)-3-methylpyrrolidin-1-yl)propoxy)phenyl)-2H-chromen-6-ol] | 60 to 85 | > 1 | ++ (++ = a single % value ≧50%)
6 | CC1=C(c2cc(O)cc(C#N)c2)C(c2ccc(OC[C@H](C)N3CC[C@@H](C)C3)cc2)Oc2ccc(O)cc21 (stereo partly drawn) [Example 7, 3-Hydroxy-5-(6-hydroxy-4-methyl-2-(4-((S)-2-((R)-3-methylpyrrolidin-1-yl)propoxy)phenyl)-2H-chromen-3-yl)benzonitrile] | 60 to 85 | < 1 | ++ (++ = a single % value ≧50%)
7 | CC1=C(c2cccc(O)c2C#N)C(c2ccc(OC[C@H](C)N3CC[C@@H](C)C3)cc2)Oc2ccc(O)cc21 (stereo partly drawn) [Example 9, 2-Hydroxy-6-(6-hydroxy-4-methyl-2-(4-((S)-2-((R)-3-methylpyrrolidin-1-yl)propoxy)phenyl)-2H-chromen-3-yl)benzonitrile] | 60 to 85 | > 1 | ++ (++ = a single % value ≧50%)
8 | CC1=C(c2cc(O)ccc2C#N)C(c2ccc(OC[C@H](C)N3CC[C@@H](C)C3)cc2)Oc2ccc(O)cc21 (stereo partly drawn) [Example 8, 4-Hydroxy-2-(6-hydroxy-4-methyl-2-(4-((S)-2-((R)-3-methylpyrrolidin-1-yl)propoxy)phenyl)-2H-chromen-3-yl)benzonitrile] | > 85 | < 1 | ++ (++ = a single % value ≧50%)
9 | CC1=C(c2ccc(O)c(C#N)c2)C(c2ccc(OC[C@H](C)N3CC[C@@H](C)C3)cc2)Oc2ccc(O)cc21 (stereo partly drawn) [Example 11, 2-Hydroxy-5-(6-hydroxy-4-methyl-2-(4-((S)-2-((R)-3-methylpyrrolidin-1-yl)propoxy)phenyl)-2H-chromen-3-yl)benzonitrile] | > 85 | > 1 | ++ (++ = a single % value ≧50%)
10 | CC1=C(c2cccc(O)c2)C(c2ccc(OCCN3CCOC[C@@H]3C)cc2)Oc2ccc(O)cc21 (stereo partly drawn) [Example 23, 3-(3-Hydroxyphenyl)-4-methyl-2-(4-(2-((S)-3-methylmorpholino)ethoxy)phenyl)-2H-chromen-6-ol] | < 60 | > 1 | + (+ = a single % value <50%)
11 | CC1=C(c2cccc(O)c2)C(c2ccc(OC[C@H](C)N3CCOCC3)cc2)Oc2ccc(O)cc21 (stereo partly drawn) [Example 29, 3-(3-Hydroxyphenyl)-4-methyl-2-(4-((S)-2-morpholinopropoxy)phenyl)-2H-chromen-6-ol] | 60 to 85 | < 1 | + (+ = a single % value <50%)
12 | CC1=C(c2cccc(O)c2)C(c2ccc(OCCN3CCO[C@@H](C)C3)cc2)Oc2ccc(O)cc21 (stereo partly drawn) [Example 20, 3-(3-Hydroxyphenyl)-4-methyl-2-(4-(2-((S)-2-methylmorpholino)ethoxy)phenyl)-2H-chromen-6-ol] | < 60 | < 1 | + (+ = a single % value <50%)
13 | COc1ccc2c(c1)C(C)=C(c1ccc(O)cc1)C(c1ccc(OC[C@H](C)N3CC[C@@H](C)C3)cc1)O2 (stereo partly drawn) [Example 30, 4-(6-Methoxy-4-methyl-2-(4-((S)-2-((R)-3-methylpyrrolidin-1-yl)propoxy)phenyl)-2H-chromen-3-yl)phenol] | 60 to 85 | > 1 | ++ (++ = a single % value ≧50%)
14 | CC1=C(c2ccccc2Br)C(c2ccc(OC[C@H](C)N3CC[C@@H](C)C3)cc2)Oc2ccc(O)cc21 (stereo partly drawn) [Example 3, 3-(2-Bromophenyl)-4-methyl-2-(4-((S)-2-((R)-3-methylpyrrolidin-1-yl)propoxy)phenyl)-2H-chromen-6-ol] | 60 to 85 | < 1 | ++ (++ = a single % value ≧50%)
15 | CC1=C(c2ccc(C#N)cc2C)C(c2ccc(OC[C@H](C)N3CC[C@@H](C)C3)cc2)Oc2ccc(O)cc21 (stereo partly drawn) [Example 13, 4-(6-Hydroxy-4-methyl-2-(4-((S)-2-((R)-3-methylpyrrolidin-1-yl)propoxy)phenyl)-2H-chromen-3-yl)-3-methylbenzonitrile] | 60 to 85 | > 1 | ++ (++ = a single % value ≧50%)
16 | CC1=C(c2cccc(O)c2)C(c2ccc(OCCN3CCSCC3)cc2)Oc2ccc(O)cc21 (stereo not drawn) [Example 19, 3-(3-Hydroxyphenyl)-4-methyl-2-(4-(2-thiomorpholinoethoxy)phenyl)-2H-chromen-6-ol] | 60 to 85 | < 1 | + (+ = a single % value <50%)
17 | CC1=C(c2cccc(O)c2)C(c2ccc(OC[C@H](C)N3CCN(C)C[C@H]3C)cc2)Oc2ccc(O)cc21 (stereo partly drawn) [Example 28, 2-(4-((S)-2-((R)-2,4-Dimethylpiperazin-1-yl)propoxy)phenyl)-3-(3-hydroxyphenyl)-4-methyl-2H-chromen-6-ol] | < 60 | < 1 | + (+ = a single % value <50%)
18 | CC1=C(c2ccc(O)c(S(C)(=O)=O)c2)C(c2ccc(OC[C@H](C)N3CC[C@@H](C)C3)cc2)Oc2ccc(O)cc21 (stereo partly drawn) [Example 17, 3-(4-Hydroxy-3-(methylsulfonyl)phenyl)-4-methyl-2-(4-((S)-2-((R)-3-methylpyrrolidin-1-yl)propoxy)phenyl)-2H-chromen-6-ol] | < 60 | > 1 | + (+ = a single % value <50%)
19 | CC1=C(c2cccc(O)c2)C(c2ccc(OCCN3CCO[C@H](C)C3)cc2)Oc2ccc(O)cc21 (stereo partly drawn) [Example 22, 3-(3-Hydroxyphenyl)-4-methyl-2-(4-(2-((R)-2-methylmorpholino)ethoxy)phenyl)-2H-chromen-6-ol] | < 60 | > 1 | + (+ = a single % value <50%)
20 | CC1=C(c2cccc(O)c2)C(c2ccc(OCCN3CCOC[C@H]3C)cc2)Oc2ccc(O)cc21 (stereo partly drawn) [Example 24, 3-(3-Hydroxyphenyl)-4-methyl-2-(4-(2-((R)-3-methylmorpholino)ethoxy)phenyl)-2H-chromen-6-ol] | < 60 | < 1 | + (+ = a single % value <50%)
21 | CC1=C(c2cccc(O)c2)C(c2ccc(OC[C@H](C)N3CCOC[C@H]3C)cc2)Oc2ccc(O)cc21 (stereo partly drawn) [Example 27, 3-(3-Hydroxyphenyl)-4-methyl-2-(4-((S)-2-((R)-3-methylmorpholino)propoxy)phenyl)-2H-chromen-6-ol] | < 60 | < 1 | ++ (++ = a single % value ≧50%)
22 | CC1=C(c2cccc(O)c2)C(c2ccc(OC[C@H](C)N3CC[C@@H](O)C3)cc2)Oc2ccc(O)cc21 (stereo partly drawn) [Example 26, (3R)-1-((2S)-1-(4-(6-Hydroxy-3-(3-hydroxyphenyl)-4-methyl-2H-chromen-2-yl)phenoxy)propan-2-yl)pyrrolidin-3-ol] | < 60 | < 1 | + (+ = a single % value <50%)
